Measurements taken from ChEMBL document CHEMBL4819006, “1,4,6-Trisubstituted imidazo[4,5-c]pyridines as inhibitors of Bruton's tyrosine kinase” (Eur J Med Chem, 2021).
Active and inactive are the calls of the source. The rule behind the calls is not given here.

Tests used:
[1] = target: T1, Mitogen-activated protein kinase; ERK1/ERK2 (Homo sapiens) (UniProt P27361+P28482); test: Inhibition of ERK1/2 in human UPF7U cells assessed as reduction in ERK1/2 phosphorylation at 0.125 to 1 uM measured after 24 hrs by western blot assay; type: cell-based; conditions: dose 0.125-1 µM
T1 sequence (P27361 whole entry, looked up): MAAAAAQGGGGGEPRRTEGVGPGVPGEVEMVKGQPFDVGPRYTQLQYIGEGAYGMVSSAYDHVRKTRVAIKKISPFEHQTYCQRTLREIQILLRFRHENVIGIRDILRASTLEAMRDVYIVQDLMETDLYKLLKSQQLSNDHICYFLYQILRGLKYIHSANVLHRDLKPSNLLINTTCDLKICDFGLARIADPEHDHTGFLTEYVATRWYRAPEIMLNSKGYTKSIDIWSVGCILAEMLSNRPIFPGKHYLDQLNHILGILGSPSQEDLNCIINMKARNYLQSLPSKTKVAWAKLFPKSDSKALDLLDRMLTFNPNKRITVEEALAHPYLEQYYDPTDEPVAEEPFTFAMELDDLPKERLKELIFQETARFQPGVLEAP
T1 sequence (P28482 whole entry, looked up): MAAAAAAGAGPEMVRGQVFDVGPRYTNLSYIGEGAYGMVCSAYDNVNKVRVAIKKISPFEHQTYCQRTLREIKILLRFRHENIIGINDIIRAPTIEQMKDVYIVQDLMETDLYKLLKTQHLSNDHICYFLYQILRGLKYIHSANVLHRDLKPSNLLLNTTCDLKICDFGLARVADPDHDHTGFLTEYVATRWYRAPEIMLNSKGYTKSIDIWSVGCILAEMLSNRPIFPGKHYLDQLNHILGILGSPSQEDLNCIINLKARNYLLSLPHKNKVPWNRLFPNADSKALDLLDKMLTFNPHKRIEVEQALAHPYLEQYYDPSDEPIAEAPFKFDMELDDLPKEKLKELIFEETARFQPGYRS

[2] = target: T1, Mitogen-activated protein kinase; ERK1/ERK2 (Homo sapiens); test: Inhibition of ERK1/2 in human Ramos cells assessed as reduction in ERK1/2 phosphorylation at 0.125 to 1 uM measured after 24 hrs by western blot assay; type: cell-based; conditions: dose 0.125-1 µM

- inhibition [1]: Active
- inhibition [2]: Active
SMILES: c1cn2cc(-c3ccc4cn[nH]c4c3)nc(Nc3ccc(N4CCOCC4)cc3)c2n1
